The solubility is the concentration that dissolves in the medium under given conditions. Low readings indicate a poorly soluble substance, high ones a readily soluble substance. What is called half-life is how long it takes for the measured level to halve. Low values mean fast loss, high ones slow loss.

Substitutions are numbered along the chain they refer to. Values after ≈ are worked out from the molar mass of the structure shown.

One data set deals with T1, RalB-GDP (Homo sapiens, UniProt P11234, Q72L).
T1 construct: made in house
T1 sequence (P11234 1-206 Q72L): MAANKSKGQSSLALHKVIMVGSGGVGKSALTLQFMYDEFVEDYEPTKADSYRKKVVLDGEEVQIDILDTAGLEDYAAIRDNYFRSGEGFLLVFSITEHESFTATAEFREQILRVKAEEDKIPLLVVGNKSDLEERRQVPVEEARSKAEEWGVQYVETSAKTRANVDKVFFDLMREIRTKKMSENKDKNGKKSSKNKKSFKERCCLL
The experiment in a line: TROSY 15N-HSQC NMR chemical shift perturbation. The data set is classed as binding. As to conditions: 100 μM RalB-GDP, 100 μM compound. An excerpt:
(§1) To confirm the direct binding of the compounds to the target, we used TROSY ^15N-HSQC (Transverse Relaxation-Optimized Heteronuclear Single Quantum Coherence) NMR. RalB (Q72L mutant) in a pET16b (Novagen) plasmid was a kind gift from Dr. Darerca Owen (Cambridge University). RalB was purified with additional steps for loading with GDP or the non-hydrolyzable form of GTP, GMPNPP (GNP, Sigma-Aldrich). Uniform ^13C^15N-double labeled protein was produced in M9 media supplemented with ^15N-NH4Cl and ^13C-glucose. Samples were prepared for NMR in 50 mM sodium phosphate, pH 7.6, 100 mM NaCl and 1 mM MgCl2. All NMR experiments were recorded on an Agilent 900 MHz system at 25° C. Resonance assignments for the RalB-GNP complex were obtained from previously published studies deposited in Biological Magnetic Resonance Bank (BMRB, code: 15230). Chemical shift assignments of the RalB-GDP complex were obtained independently using HNCACB, CBCA(CO)NH and COCNH-TOCSY experiments. All NMR data was processed using NMRPipe and analyzed using CCPNMR analysis program. Assignment were obtained by automated assignment using PINE followed by manual verification. ^15N-HSQC experiments were used to monitor amide shifts from the RalB protein (100 μM) following the addition of compound reconstituted in deuterated DMSO. DMSO concentrations in the final sample were 0.5% or 1%; control samples were made with 0.5% or 1% deuterated DMSO and all samples containing compounds were compared to their corresponding […] control.
(§2) Because only the NMR structure of RalB in complex with GNP has been solved (PDB code 2KE5, BMRB entry 15230), we focused on this isoform. The ^15N-HSQC NMR spectrum of RalB-GDP and RalB-GNP were first determined and the chemical shift differences were analyzed. NMR spectra were then recorded in the presence of RBC8 or DMSO control. Binding of small molecules to the protein was monitored by the perturbation of ^15N-HSQC protein amide peaks.
(§3) A detailed NMR titration of the binding between BQU57 and RalB-GDP was carried out. […] In the absence of a crystal structure of RalB-GDP, a homology model was generated based on the sequence similarity to RalA-GDP and the residues that experienced chemical shift changes in the presence of drug was mapped onto this model (FIG. 3E).

The target of a further data set is T2, RalB-GNP (Homo sapiens, UniProt P11234, Q72L).
T2 construct: made in house
T2 sequence (P11234 1-206 Q72L): T1 sequence (P11234 1-206 Q72L)
The experiment in a line: TROSY 15N-HSQC NMR chemical shift perturbation. The data set is classed as binding. As to conditions: 100 μM RalB-GNP, 100 μM compound.
Description: as §1, §2, §3

The nature of a further data set: physchem. The data set is classed as physicochemical. As to conditions: aqueous buffer.
In data set [1] the test system is H2122 human lung cancer cells. The experiment in a line: Cellular uptake, LC/MS-MS of cell lysates. It is filed as in vitro ADME. The following applies: 10 μM, 1-60 min. The protocol:
To quantitate how well the test compounds get into cells, H2122 human lung cancer cells were seeded at 3×10^5 cells per well in 6-well plates and let sit for 16 h. Compounds (10 μM) were individually dosed in triplicate; cells were then collected into 500 μl ice-cold ACN:MeOH:H2O (1:1:1) at different time points (1, 5, 15, 30 and 60 min). Drug concentrations in cell lysates were then determined using LC/MS-MS methods as described with respect to the pharmacokinetic and pharmacodynamic studies in mice, described in detail in Example 5, below.

A short description of data set [2]: Pharmacokinetics after single intraperitoneal injection. It is filed as in vivo. The following applies: 50.0 mg/kg i.p., n = 3, nude mice. The protocol: Inhibition of Ral activity and tumor growth were evaluated in human lung cancer mouse models. Pharmacokinetics (PK) of RBC8 and BQU57 were first analyzed in nude mice to test bioavailability. Following a single intraperitoneal injection (50 mg/Kg), blood samples were collected at time intervals from 0 to 5 h post-dose (9 time points).

The target in a further data set is T3, RalB (Homo sapiens, UniProt P11234).
T3 sequence (P11234 1-206): T1 sequence (P11234 1-206 Q72L) with L72Q
The experiment in a line: RalBP1 pull-down of Ral activity in H2122 xenograft tumors. The data set is classed as in vivo. As to conditions: single i.p. dose, RBC8 50 mg/kg or BQU57 10/20/50 mg/kg, tumors collected 3 h post-dose. The protocol:
Finally, we evaluated Ral GTPase activity in vivo in the H2122 xenografts. Nude mice were inoculated with 5×10^6 cells H2122 cells s.c. at four sites per mice. Tumor size reached an average of 250 mm^3 in ten days, at which time mice were given a signal i.p. dose of RBC8 or BQU57 at various concentrations. Tumors were then collected 3 h after injection of RBC8 or BQU57. RalA and RalB activity in tumor samples were then measured using the RalBP1 pull-down assay kit (Millipore #14-415). Ras and RhoA activity in tumor samples were measured using the respective pull-down assay kits. All the activity assays used western blotting as the final readout. For quantification of the immunoblots, the bands on each blot were first normalized to their respective internal control (10 ng of recombinant Ral, Ras, or […] protein run in the last lane) the numbers were then compared across different blots, each of which represented one treatment condition. Mice bearing H2122 tumors (median size 250 mm^3) were given a single intraperitoneal dose of RBC8 (50 mg/kg) or BQU57 (10/20/50 mg/kg) and tumors collected 3 h post-dose.

Take `Cc1nn(C)c2c1C(c1ccc(C(F)(F)F)cc1)C(C#N)=C(N)O2` (centres unmarked) [BQU57, 6-amino-1,3-dimethyl-4-(4-(trifluoromethyl)phenyl)-1,4-dihydropyrano[2,3-c]pyrazole-5-carbonitrile]: the “binding to RalB-GDP by 15N-HSQC chemical shift changes” value at RalB-GDP is given as “binding to the predicted site”. The “binding to RalB-GNP by 15N-HSQC chemical shift changes” value at RalB-GNP is listed as “did not bind”. This molecule also registered a solubility in the data set “physchem” of around 75 µM (≈ 25.1 µg/mL). Further, the cellular uptake result in data set [1] is “readily get into cells”. Also, the Co in data set [2] was found to be 41.6 ± 5.1 µM. For the same molecule, the half-life in data set [2] (mouse, blood, ip) is 1.5 ± 0.11 h. In addition, the AUC(0-t) in data set [2] (mouse, blood, ip, read-out: AUC0-5 hr) is 28600 ± 2100 ng·h/mL. Besides, the “inhibition of RalB activity in tumors” value against RalB is “significant inhibition”.
With `COc1ccc(OC)c(C2C(C#N)=C(N)Oc3n[nH]c(-c4ccc5ccccc5c4)c32)c1` (centres unmarked) [RBC8], the “binding to RalB-GDP by 15N-HSQC chemical shift changes” value on RalB-GDP was “showed changes in peak position of representative residues located in the allosteric site”. In addition, the “binding to RalB-GNP by 15N-HSQC chemical shift changes” value on RalB-GNP is given as “did not bind”. Also, the cellular uptake entry in data set [1] was “readily get into cells”. Further, in data set [2], the Co turned out to be 41.2 ± 4.2 µM and the T1/2 stood at 0.58 ± 0.26 h. Further, the “inhibition of RalB activity in tumors” value at RalB was “significant inhibition”.

These data come from patent publication US11472812B2, “Anti-cancer compounds targeting Ral GTPases and methods of using the same” (The Regents of the University of Colorado, a body corporate, priority 2014, dated 2022).
